{"source": "paper PMC10817170", "about": "“Effect of an NHE3 inhibitor in combination with an NPT2b inhibitor on gastrointestinal phosphate absorption in Rodent models” (PLOS ONE, 2024)", "key": {"[1]": {"test_system": "acute phosphate uptake into plasma", "experiment": "Acute radiolabeled phosphate uptake into plasma in rats", "type": "in vivo", "method": "A dosing solution for a 10 mg/kg dose of LY3304000 using a 10 mL/kg dosing volume was made in 1% HEC vehicle. The subsequent dosing solutions for 3, 1, 0.3, 0.1, 0.03, 0.01, 0.003, and 0.001 mg/kg were prepared by serial dilutions with HEC. A Radiolabeled Phosphate Dosing Solution was made in a 16.25 mM Na2HPO4, 0.9% saline, pH 7.4, solution with the addition of about 2.5 μCi/mL radioactive phosphate (H3^33PO4, PerkinElmer) and filtered before dosing. Following 12-hour fasting with access to water, male SD rats were orally dosed at 10 mL/kg with either vehicle or varying doses of LY3304000. Fifteen minutes later, 2 mL of the Radiolabeled Phosphate Dosing Solution was dosed by oral gavage. This dose of phosphate was chosen because it approximates the rat equivalent to the amount of bioavailable phosphate in a human meal, 4 mg/kg phosphorus, or 320 mg phosphorus for an 80 kg person on a phosphate restricted diet. Fifteen minutes later, blood was collected by cardiac stick, and plasma was prepared. Radioactivity (dpm) in 50 μL plasma was measured by scintillation counting. To determine the total radioactivity dosed to each rat, the radioactivity in two 10-μL samples of the Radiolabeled Phosphate Dosing Solution was measured by scintillation counting. To calculate the total radioactivity recovered in plasma, it was assumed that total blood volume constitutes about 60% of the body weight and plasma constitutes about 55% of the total blood. The mole amount of phosphate uptake was calculated as the percentage of administered radiolabeled phosphate recovered in the plasma of vehicle or LY3304000 treated rats multiplied by total phosphate amount in the radiolabeled phosphate dosing solution. ED50 values were then determined with a 4-parameter logistic curve fitting model using GraphPad Prism. A 15-minute time point, post phosphate dosing, was chosen for collecting blood in the acute phosphate uptake studies in rats and mice (see below) to capture the initial rate of phosphate absorption. We wanted to avoid measurements at longer time points when plasma radiolabeled phosphate appears to be at a steady state."}, "Human Pit-2": {"target": "T1, Human Pit-2 (Homo sapiens, UniProt Q08357)", "T1 construct": "expressed in transfected cells; host or cells: CHO cells, constitutive expression", "T1 sequence (Q08357 1-652)": "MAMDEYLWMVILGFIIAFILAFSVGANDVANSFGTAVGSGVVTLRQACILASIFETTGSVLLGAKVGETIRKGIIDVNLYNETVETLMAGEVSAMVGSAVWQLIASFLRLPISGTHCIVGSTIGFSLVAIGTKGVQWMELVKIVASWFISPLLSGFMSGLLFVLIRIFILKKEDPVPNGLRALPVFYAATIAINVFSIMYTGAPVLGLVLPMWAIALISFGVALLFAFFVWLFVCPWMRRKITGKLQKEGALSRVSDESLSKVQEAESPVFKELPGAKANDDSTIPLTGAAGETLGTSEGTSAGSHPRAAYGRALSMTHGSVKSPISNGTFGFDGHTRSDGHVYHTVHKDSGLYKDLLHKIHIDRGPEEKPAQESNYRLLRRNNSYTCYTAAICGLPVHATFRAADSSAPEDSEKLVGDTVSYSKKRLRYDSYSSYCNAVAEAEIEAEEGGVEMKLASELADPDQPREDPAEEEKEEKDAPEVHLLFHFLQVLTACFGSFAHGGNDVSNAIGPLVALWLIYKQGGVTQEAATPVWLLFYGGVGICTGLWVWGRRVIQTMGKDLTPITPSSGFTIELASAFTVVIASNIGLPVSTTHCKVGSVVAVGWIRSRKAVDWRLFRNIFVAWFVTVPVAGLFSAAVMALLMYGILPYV", "experiment": "Pit-2 activity assay (33P phosphate uptake in CHO cells)", "type": "cell-based", "settings": "n=1", "method": "Generation of constitutive human Pit-2 and SGLT1 overexpressing CHO cells and activity assays measuring the uptake of ^33P phosphate for 45 minutes at 20°C for Pit-2 and ^14C-α-methyl-D-glucopyranoside for 120 minutes at 37°C for SGLT1, were also described previously."}}}
{"smiles": "CN1Cc2c(Cl)cc(Cl)cc2[C@H](c2cccc(S(=O)(=O)NCCOCCOCCN/C(=N\\C(N)=O)NCCCCN/C(=N/C(N)=O)NCCOCCOCCNS(=O)(=O)c3cccc([C@@H]4CN(C)Cc5c(Cl)cc(Cl)cc54)c3)c2)C1.Cl.Cl", "note": "[LY3304000, (Z)-[[4-[[(Z)-N’-carbamoyl-N-[2-[2-[2-[[3-[(4S)-6,8-dichloro-2-methyl-3,4-dihydro-1H-isoquinolin-4-yl]phenyl]sulfonylamino]ethoxy]ethoxy]ethyl]carbamimidoyl]amino]butylamino]-[2-[2-[2-[[3-[(4S)-6,8-dichloro-2-methyl-3,4-dihydro-1H-isoquinolin-4-yl]phenyl]sulfonylamino]ethoxy]ethoxy]ethylamino]methylene]urea dihydrochloride]", "values": [{"measurement": "maximal inhibition of phosphate uptake", "setting": "[1]", "value": 37, "unit": "%"}, {"measurement": "ED50", "setting": "[1]; Rattus norvegicus, po, 0.25 h, oral, plasma 15 min post 33P phosphate, read-out: ED50 (decrease of phosphate uptake)", "value": 0.04, "unit": "mg/kg"}, {"measurement": "Emax, Pi uptake", "setting": "[1]; curve fit", "value": 266.8, "unit": "nmol"}, {"measurement": "ED50 (decrease of phosphate uptake)", "setting": "[1]; oral, plasma 15 min post 33P phosphate", "value": 0.041, "unit": "mg/kg"}, {"measurement": "radiolabeled phosphate in plasma, maximal determined decrease", "setting": "[1]; vehicle 416 nmoles", "value": 264, "unit": "nmol"}, {"measurement": "IC50", "setting": "Human Pit-2", "value": "> 100", "unit": "µM"}]}
